Measurements reported in ChEMBL document CHEMBL1909046, “DrugMatrix in vitro pharmacology data”.

Experiments:
Androgen receptor = molecular target: T1, Androgen receptor (Rattus norvegicus, UniProt P15207)
T1 sequence (P15207 whole entry): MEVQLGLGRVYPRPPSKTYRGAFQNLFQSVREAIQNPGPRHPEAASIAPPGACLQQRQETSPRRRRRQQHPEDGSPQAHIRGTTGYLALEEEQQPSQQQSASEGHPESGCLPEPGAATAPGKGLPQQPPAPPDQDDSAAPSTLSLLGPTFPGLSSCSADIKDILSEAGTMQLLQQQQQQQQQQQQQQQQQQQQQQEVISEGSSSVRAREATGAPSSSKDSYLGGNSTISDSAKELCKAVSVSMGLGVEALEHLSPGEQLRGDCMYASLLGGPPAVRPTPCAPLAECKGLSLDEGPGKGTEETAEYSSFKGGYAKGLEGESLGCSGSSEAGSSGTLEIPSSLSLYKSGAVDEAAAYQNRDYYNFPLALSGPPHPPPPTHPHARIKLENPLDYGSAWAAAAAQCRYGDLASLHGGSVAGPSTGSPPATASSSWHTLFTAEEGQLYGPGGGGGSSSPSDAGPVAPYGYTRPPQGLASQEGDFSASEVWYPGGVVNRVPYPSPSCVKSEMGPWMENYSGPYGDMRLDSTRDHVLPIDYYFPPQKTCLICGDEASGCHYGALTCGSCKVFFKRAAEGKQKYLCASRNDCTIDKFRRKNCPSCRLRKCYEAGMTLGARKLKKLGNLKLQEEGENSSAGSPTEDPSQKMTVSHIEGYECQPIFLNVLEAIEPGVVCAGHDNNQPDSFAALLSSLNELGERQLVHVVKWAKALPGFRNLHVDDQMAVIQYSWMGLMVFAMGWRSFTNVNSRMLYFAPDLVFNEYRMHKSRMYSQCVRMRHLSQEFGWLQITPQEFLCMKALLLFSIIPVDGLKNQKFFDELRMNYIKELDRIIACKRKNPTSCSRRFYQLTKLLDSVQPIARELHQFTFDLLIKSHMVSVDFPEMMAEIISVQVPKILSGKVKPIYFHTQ

Cytochrome P450 2C9 = Cytochrome P450 2C9 (Homo sapiens, UniProt P11712)
Chain of Cytochrome P450 2C9 (P11712 whole entry): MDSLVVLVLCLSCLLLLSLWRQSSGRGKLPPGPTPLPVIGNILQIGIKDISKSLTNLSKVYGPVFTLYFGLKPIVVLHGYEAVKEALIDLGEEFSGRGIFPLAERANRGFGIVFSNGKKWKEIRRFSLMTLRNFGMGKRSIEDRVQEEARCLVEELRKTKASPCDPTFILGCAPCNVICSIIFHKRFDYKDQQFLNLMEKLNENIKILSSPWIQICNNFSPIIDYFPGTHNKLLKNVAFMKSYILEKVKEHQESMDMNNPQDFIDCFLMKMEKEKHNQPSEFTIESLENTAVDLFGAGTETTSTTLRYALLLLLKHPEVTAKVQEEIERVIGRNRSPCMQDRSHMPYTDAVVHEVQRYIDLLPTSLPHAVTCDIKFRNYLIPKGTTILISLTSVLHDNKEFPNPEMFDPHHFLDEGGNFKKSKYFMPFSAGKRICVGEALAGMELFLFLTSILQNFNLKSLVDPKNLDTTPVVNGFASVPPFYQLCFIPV

Caspase-1 = molecular target: T2, Caspase-1 (Homo sapiens, UniProt P29466); parameters: species or system Escherichia coli;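 also: Caspase-1 enzyme inhibition assay with a peptide substrate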
T2 sequence (P29466 whole entry): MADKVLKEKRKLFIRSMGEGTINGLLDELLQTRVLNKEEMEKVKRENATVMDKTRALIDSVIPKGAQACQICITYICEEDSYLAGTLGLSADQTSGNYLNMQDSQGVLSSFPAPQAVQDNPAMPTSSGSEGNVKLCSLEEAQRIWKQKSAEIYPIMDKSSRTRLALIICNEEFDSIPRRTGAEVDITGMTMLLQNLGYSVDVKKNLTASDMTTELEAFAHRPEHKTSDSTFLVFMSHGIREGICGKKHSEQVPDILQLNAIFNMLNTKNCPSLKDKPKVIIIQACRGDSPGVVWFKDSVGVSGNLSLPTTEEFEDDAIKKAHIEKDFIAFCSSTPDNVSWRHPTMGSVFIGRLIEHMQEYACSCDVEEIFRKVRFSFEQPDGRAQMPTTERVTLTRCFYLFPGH

[1] = molecular target: Platelet-activating factor receptor (Homo sapiens, UniProt P25105); test: biochemical; assay type: tissue-based; details: platelet
Chain of Platelet-activating factor receptor (P25105 whole entry): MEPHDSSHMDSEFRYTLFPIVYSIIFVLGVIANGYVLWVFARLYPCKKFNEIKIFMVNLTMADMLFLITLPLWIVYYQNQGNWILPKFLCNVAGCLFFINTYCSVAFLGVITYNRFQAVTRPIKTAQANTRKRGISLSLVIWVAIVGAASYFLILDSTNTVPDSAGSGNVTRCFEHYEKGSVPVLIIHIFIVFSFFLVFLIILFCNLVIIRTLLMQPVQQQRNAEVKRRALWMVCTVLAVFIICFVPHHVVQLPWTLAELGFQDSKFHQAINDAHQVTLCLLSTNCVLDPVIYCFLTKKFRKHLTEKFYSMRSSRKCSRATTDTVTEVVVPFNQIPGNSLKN

Cytochrome P450 3A4 = Cytochrome P450 3A4 (Homo sapiens, UniProt P08684)
Chain of Cytochrome P450 3A4 (P08684 whole entry): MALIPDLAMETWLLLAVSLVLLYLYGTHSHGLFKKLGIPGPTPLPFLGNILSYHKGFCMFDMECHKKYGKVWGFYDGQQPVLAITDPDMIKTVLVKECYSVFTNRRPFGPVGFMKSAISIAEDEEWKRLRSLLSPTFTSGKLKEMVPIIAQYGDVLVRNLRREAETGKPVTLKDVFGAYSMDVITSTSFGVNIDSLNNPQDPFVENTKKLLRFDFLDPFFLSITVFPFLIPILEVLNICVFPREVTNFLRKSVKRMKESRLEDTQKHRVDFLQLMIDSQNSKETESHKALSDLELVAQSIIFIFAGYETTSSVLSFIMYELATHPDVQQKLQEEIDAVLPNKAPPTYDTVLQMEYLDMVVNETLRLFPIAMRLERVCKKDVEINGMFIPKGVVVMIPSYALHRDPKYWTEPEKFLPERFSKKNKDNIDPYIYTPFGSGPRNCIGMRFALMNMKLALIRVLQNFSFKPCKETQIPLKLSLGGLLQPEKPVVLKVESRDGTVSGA

Cytochrome P450 2D6 = Cytochrome P450 2D6 (Homo sapiens, UniProt P10635)
Chain of Cytochrome P450 2D6 (P10635 whole entry): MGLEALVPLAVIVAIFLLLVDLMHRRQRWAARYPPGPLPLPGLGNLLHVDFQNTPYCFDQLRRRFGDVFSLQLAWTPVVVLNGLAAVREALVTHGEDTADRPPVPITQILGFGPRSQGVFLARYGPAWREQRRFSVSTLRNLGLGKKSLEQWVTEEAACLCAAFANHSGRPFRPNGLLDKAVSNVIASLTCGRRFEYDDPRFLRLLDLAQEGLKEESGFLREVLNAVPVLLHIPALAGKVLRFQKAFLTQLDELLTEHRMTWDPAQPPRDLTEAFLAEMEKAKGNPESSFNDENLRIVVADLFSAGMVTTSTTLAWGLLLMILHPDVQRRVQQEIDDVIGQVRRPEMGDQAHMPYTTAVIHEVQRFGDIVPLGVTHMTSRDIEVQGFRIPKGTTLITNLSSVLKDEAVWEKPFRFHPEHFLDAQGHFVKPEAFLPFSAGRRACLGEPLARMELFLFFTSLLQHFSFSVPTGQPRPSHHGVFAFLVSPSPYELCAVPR

[2] = molecular target: Protein phosphatase 3 catalytic subunit alpha (Homo sapiens, UniProt Q08209); parameters: species or system Escherichia coli;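 also: inhibition of calcineurin (PP2B) enzyme activity, measured with DiFMUP as the substrate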
Cytochrome P450 2C19 = Cytochrome P450 2C19 (Homo sapiens, UniProt P33261)
Chain of Cytochrome P450 2C19 (P33261 whole entry): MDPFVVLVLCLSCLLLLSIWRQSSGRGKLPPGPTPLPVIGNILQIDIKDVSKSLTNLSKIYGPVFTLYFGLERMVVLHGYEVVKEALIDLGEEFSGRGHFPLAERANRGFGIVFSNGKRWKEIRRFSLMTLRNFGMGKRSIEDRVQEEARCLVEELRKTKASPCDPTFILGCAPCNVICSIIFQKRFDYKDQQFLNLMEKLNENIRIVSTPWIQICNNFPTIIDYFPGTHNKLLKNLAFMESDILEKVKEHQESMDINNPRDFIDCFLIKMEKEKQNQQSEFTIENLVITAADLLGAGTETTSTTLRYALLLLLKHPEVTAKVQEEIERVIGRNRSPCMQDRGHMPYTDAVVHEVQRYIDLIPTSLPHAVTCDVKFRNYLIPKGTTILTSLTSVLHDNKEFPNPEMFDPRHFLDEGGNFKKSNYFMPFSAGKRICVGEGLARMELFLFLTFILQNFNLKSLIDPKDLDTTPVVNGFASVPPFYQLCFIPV
Also: in other assays of this panel Not Active means under 50% inhibition at 10 µM.

Row | Compound | IC50 (Androgen receptor) | IC50 (Cytochrome P450 2C9) | IC50 (Caspase-1) | IC50 [1] | IC50 (Cytochrome P450 3A4) | IC50 (Cytochrome P450 2D6) | IC50 [2] | IC50 (Cytochrome P450 2C19)
1 | COc1cc(N)nc2[nH]c(-c3ccc(F)cc3)c(-c3ccncc3)c12 | Not Active | 1 µM | Not Active | Not Active | 1 µM | 0.2 µM | Not Active | 
2 | CO[C@H]1C[C@@H]2CC[C@@H](C)[C@@](O)(O2)C(=O)C(=O)N2CCCC[C@H]2C(=O)O[C@H]([C@H](C)C[C@@H]2CC[C@@H](O)[C@H](OC)C2)CC(=O)[C@H](C)/C=C(\C)[C@@H](O)[C@@H](OC)C(=O)[C@H](C)C[C@H](C)/C=C/C=C/C=C/1C [SIROLIMUS] | Not Active | 2 µM | Not Active | Not Active | 2 µM |  | Not Active | 4 µM
